The text below walks through data of US5001058A (Bristol-Myers Company, priority 1989, dated 1991).

Data set [1] relates to Staphylococcus epidermidis D153. Nature of the data set: Antimicrobial activity, two-fold serial dilution in agar media. The class given is cell-based. To be noted: Nutrient agar.
Another data set relates to Proteus mirabilis A9554. Description: microbe, parasite or virus in culture.
Data set [2] concerns macromolecule (DNA, RNA and protein) synthesis in L1210 murine leukemia cells. Description: Inhibitory effects on macromolecule (DNA, RNA and protein) synthesis (summary). The class given is cell-based. To be noted: in words.
Data set [3] relates to Streptococcus pyogenes A20201. Description: Antimicrobial activity, two-fold serial dilution in agar media. The class given is cell-based. To be noted: Nutrient agar.
Data set [4] concerns Pseudomonas aeruginosa A9930. Description: microbe, parasite or virus in culture.
For data set [5], the system named is Cryptococcus neoformans D49. Nature of the data set: microbe, parasite or virus in culture.
In data set [6] the test system is DNA synthesis in L1210 leukemia cells. Nature of the data set: Inhibition of DNA synthesis in L1210 leukemia cells (labelled precursor incorporation). The class given is cell-based, murine. To be noted: Mus musculus, 3H-thymidine, 15 min with test material, then 60 min.
The test system of the next data set is gram-negative bacteria. Nature of the data set: Antimicrobial activity, two-fold serial dilution in agar media (summary). Format: cell-based. To be noted: in words.
The test system of data set [7] is Aspergillus fumigatus IAM 2530. Nature of the data set: microbe, parasite or virus in culture. To be noted: IAM2530.
Data set [8] has as its system B16-F10 (murine melanoma) cells. Description: In vitro cytotoxicity, neutral red staining. The note with it: Mus musculus; B16-F10, 72 hours, 37° C. Format: cell-based.
Data set [9] concerns Clostridium perfringens A9635. Description: microbe, parasite or virus in culture.
A further data set has as its system Yeast and fungi. Nature of the data set: Antimicrobial activity, two-fold serial dilution in agar media (summary). The class given is cell-based. To be noted: in words.
Another data set in a line: Solubility. The class given is physicochemical.
For data set [10], the system named is Bacteroides fragilis A22035. Nature of the data set: microbe, parasite or virus in culture.
The subject of data set [11] is Klebsiella pneumoniae D11. Description: microbe, parasite or virus in culture.
Data set [12] deals with Trichophyton mentagrophytes D155. Description: microbe, parasite or virus in culture.
Another data set concerns anaerobic bacteria. Nature of the data set: Antimicrobial activity, two-fold serial dilution in agar media (summary). The class given is cell-based. The note with it: in words.
Data set [13] concerns Candida albicans IAM 4888. Description: microbe, parasite or virus in culture. To be noted: IAM4888.
Data set [14] concerns HCT-116 (human colon carcinoma) cells. Nature of the data set: In vitro cytotoxicity, neutral red staining. The class given is cell-based. The note with it: HCT-116, 72 hours, 37° C.
Data set [15] concerns Bacillus subtilis PCI 219. Description: Antimicrobial activity, two-fold serial dilution in agar media. The class given is cell-based. The note with it: PCI219, Nutrient agar.
Another data set relates to Proteus vulgalis A9436. Description: microbe, parasite or virus in culture.
Data set [16] has as its system murine and human tumor cells. Nature of the data set: In vitro cytotoxicity against tumor cells (summary). The class given is cell-based.
For data set [17], the system named is Clostridium difficile A21675. Nature of the data set: microbe, parasite or virus in culture. The note with it: Clostridioides difficile.
The test system of data set [18] is Staphylococcus aureus 209P. Description: Antimicrobial activity, two-fold serial dilution in agar media. Format: cell-based. The note with it: Nutrient agar.
For data set [19], the system named is Micrococcus luteus PCI 1001. Described as above. Format: cell-based. The note with it: PCI1001, Nutrient agar.
The next data set has as its system Escherichia coli NIHJ. Description: microbe, parasite or virus in culture.
The subject of data set [20] is RNA synthesis in L1210 leukemia cells. Nature of the data set: Inhibition of RNA synthesis in L1210 leukemia cells (labelled precursor incorporation). To be noted: Mus musculus, 14C-uridine, 15 min with test material, then 60 min. The class given is cell-based, murine.
A further data set deals with gram-positive bacteria. Nature of the data set: Antimicrobial activity, two-fold serial dilution in agar media (summary). The class given is cell-based. To be noted: in words.
The test system of data set [21] is Staphylococcus aureus A20234. Nature of the data set: Antimicrobial activity, two-fold serial dilution in agar media. Format: cell-based. The note with it: Nutrient agar.
In data set [22] the test system is Preopionibacterium acnes A21933. Described as above. Format: cell-based. To be noted: Gifu anaerobic medium agar.
In data set [23] the test system is Protein synthesis in L1210 leukemia cells. Description: Inhibition of protein synthesis in L1210 leukemia cells (labelled precursor incorporation). The class given is cell-based, murine. The note with it: Mus musculus, 3H-leucine, 15 min with test material, then 60 min.
Data set [24] deals with Moser (human colorectal carcinoma) cells. Description: In vitro cytotoxicity, neutral red staining. The class given is cell-based.
Data set [25] relates to Streptococcus faecalis A9612. Description: microbe, parasite or virus in culture. The note with it: Enterococcus faecalis.
For data set [26], the system named is Staphylococcus aureus Smith. Description: Antimicrobial activity, two-fold serial dilution in agar media. The class given is cell-based. The note with it: Nutrient agar.
For data set [27] the following is noted: in words, literature; cited from earlier work.

The structures appear in SMILES notation. ≈ marks a conversion by molar mass, not a printed value. Where two headings read alike, the source gives them in different places.

A word on the IC50: it is the concentration at which inhibition is half-maximal. As usually defined, the T/C is the ratio of treated to control. Turning to `Cc1cc2c(c3oc(C(O)(CO)C4CO4)cc(=O)c13)C(=O)c1c(O)cccc1C2=O` (stereo not shown) [BU-3839T], the MIC is 0.1 µg/mL (≈ 0.245 µM) in data set [1]; > 50 µg/mL in the data set with Proteus mirabilis A9554; 0.1 µg/mL (≈ 0.245 µM) in data set [3]; > 50 µg/mL in [4]; > 50 µg/mL in [5]; > 50 µg/mL in data set [7]. The MIC was 0.4 µg/mL (≈ 0.98 µM) in [9]; 0.1 µg/mL (≈ 0.245 µM) in [10]; 6.3 µg/mL (≈ 15.4 µM) in data set [11]; > 50 µg/mL in [12]; > 50 µg/mL in [13]; 0.05 µg/mL (≈ 0.122 µM) in data set [15]. The MIC against Proteus vulgalis A9436 was 6.3 µg/mL (≈ 15.4 µM); in [17], 0.4 µg/mL (≈ 0.98 µM); in data set [18], 0.05 µg/mL (≈ 0.122 µM); in [19] it was 0.025 µg/mL (≈ 0.0612 µM); with Escherichia coli NIHJ, > 50 µg/mL; in data set [21], 0.05 µg/mL (≈ 0.122 µM). The MIC in data set [22] is 0.8 µg/mL (≈ 1.96 µM); in data set [25], 0.4 µg/mL (≈ 0.98 µM); in [26], 0.05 µg/mL (≈ 0.122 µM). Also, the “Inhibition of macromolecule synthesis” value in data set [2] is “inhibited DNA, RNA and protein synthesis non-specifically”. In addition, the IC50 in data set [6] was found to be 0.013 µg/mL (≈ 0.0318 µM); in data set [8], 0.0009 µg/mL (≈ 0.0022 µM); in [14] it was 0.0026 µg/mL (≈ 0.00637 µM); in data set [20], 0.029 µg/mL (≈ 0.071 µM); in [23], 0.039 µg/mL (≈ 0.0955 µM); in [24] (Moser, 72 hours, 37° C., read-out: IC50), 0.0046 µg/mL (≈ 0.0113 µM). Also, the “Activity against gram-negative bacteria” value in the data set on gram-negative bacteria is on record as “relatively weak activity”. For the same compound, the “Body weight change on day 4” value in the data set with P388 leukemia (0.008 mg/kg/day, QD × 3, ip) is “+1.0 g”. Besides, the “MST (median survival time)” value in the data set on P388 leukemia (0.008 mg/kg/day, QD × 3, ip) stood at 11.0 days; with P388 leukemia (0.5 mg/kg/day, QD × 3, ip), 14.5 days; in the data set on P388 leukemia (1 mg/kg/day, QD × 3, ip) it was 7.0 days. Also, the T/C with P388 leukemia (0.008 mg/kg/day, QD × 3, ip, T/C ≥ […] significant) turned out to be 110%. The “maximum T/C value” in the data set on P388 leukemia (P388 leukemia, ip, QD×3) was found to be 145%. Further, the “Chemotherapeutic activity against P388 leukemia” value in the data set with P388 leukemia (in words) was “relatively broad and moderate chemotherapeutic activity”. Moreover, the “Susceptibility of yeast and fungi” value with Yeast and fungi is listed as “not susceptible”. Also, the Solubility result in “Solubility” (N,N-dimethylformamide) is “soluble”; in “Solubility” (alkaline water), “slightly soluble”; in “Solubility” (chloroform) it was “slightly soluble”; in “Solubility” (dimethyl sulfoxide) it was “soluble”; in the data set “Solubility” (methylene chloride) it was “slightly soluble”; in the data set “Solubility” (other organic solvents), “almost insoluble”. Moreover, the Solubility result in “Solubility” (water) was “almost insoluble”. The “Activity against anaerobic bacteria” value in the data set on anaerobic bacteria is “relatively weak activity”. The “Cytotoxicity superior to mitomycin C in terms of IC50 value” in [16] (approximately, ratio to mitomycin C) is 300-600 times. Also, the “Cytotoxicity against tumor cells” value in data set [16] (in words) is on record as “quite potent”. Moreover, the “Inhibitory activity against gram-positive bacteria” value in the data set on gram-positive bacteria is on record as “remarkable inhibitory activity”.
On to `CO[C@@]12[C@H](COC(N)=O)C3=C(C(=O)C(C)=C(N)C3=O)N1C[C@@H]1N[C@@H]12` [Mitomycin C, reference compound], for which the “Inhibition of macromolecule synthesis” value in [2] is “specific inhibition of DNA synthesis”. In data set [24] (72 h), the midpoint of inhibition, the IC50, lay at 1.2 µg/mL (≈ 3.59 µM).
As to `Cc1cc2c(c3oc(C4(C5CO5)CO4)cc(=O)c13)C(=O)c1c(O)cccc1C2=O` (stereo not shown) [SF-2330], the Antibacterial activity result in [27] is “antibacterial activity”.
Turning to `CCC(C)c1cc(=O)c2c(CC(=O)O)cc3c(c2o1)C(=O)c1c(O)cccc1C3=O` (stereo not shown) [SS-43405D], in data set [27], the Antibacterial activity result is recorded as “antibacterial activity”.
